Laboratory results as given in patent publication US9963452B2, “Methods, compounds, and compositions for inhibition of ROS” (AUGUSTA PHARMACEUTICALS INC., priority 2013, dated 2018).

Assays:
Type in all cases: cell-based
[1] = tested on: HeLa cervical cancer cell line; assay: In-vitro cell survival assay (Alamar blue), HeLa; settings: one day after compound addition
Description: (§1) Five tumor-derived cell lines were treated with the ROS inhibitor compounds and cell survival was monitored to determine the cancer prohibition effects of the compounds. The cell lines included HeLa, a cervical cancer cell line, and four glioblastoma cell lines U138, U87, LN18, and U118. The basic protocol for the in-vitro cell survival assay is the same for all five cell lines. In particular, the cells were seeded in 96-well plates at 2-5×10^3 cells/well (cell line dependent) in culture medium. The cells were grown for 2 days before the compounds were dissolved in DMSO and added to final concentrations of 100 uM, 10 uM, or 1 uM (DMSO final concentration 0.5%). The cell culture was then assayed one day after the addition of the compounds. The assay used Alamar blue as a redox-sensitive dye that interrogates mitochondrial fitness of cells, and these assays provided a readout for cell proliferation and viability. The raw values were normalized to an average of several vehicle control wells and are presented as percent decrease in proliferation/viability, which is converted to half maximal effective concentration (EC50) values.

[2] = tested on: U87 glioblastoma cell line; assay: In-vitro cell survival assay (Alamar blue), U87; settings: U87, one day after compound addition
Description: as §1

[3] = tested on: U118 glioblastoma cell line; assay: In-vitro cell survival assay (Alamar blue), U118; settings: U118, one day after compound addition
Description: as §1

[4] = tested on: LN18 glioblastoma cell line; assay: In-vitro cell survival assay (Alamar blue), LN18; settings: LN18, one day after compound addition
Description: as §1

[5] = tested on: U138 glioblastoma cell line; assay: In-vitro cell survival assay (Alamar blue), U138; settings: U138, one day after compound addition
Description: as §1

| SMILES | EC50 ([1]; Homo sapiens, 24 h) [µM] | EC50 ([2]; 24 h) [µM] | EC50 ([3]; 24 h) [µM] | EC50 ([4]; Homo sapiens, LN-18, 24 h) [µM] | EC50 ([5]; 24 h) [µM] | EC50 [1] [µM] | EC50 [2] [µM] | EC50 [3] [µM] | EC50 [4] [µM] | EC50 [5] [µM] |
| --- | --- | --- | --- | --- | --- | --- | --- | --- | --- | --- |
| Cc1nc2cc(C(=O)N[C@H](c3ccccc3)c3cccnc3)ccc2[nH]1 [drawing 398] | > 100 | > 100 | > 100 | > 100 | > 100 |  |  |  |  |  |
| Cc1cc(C)c(NC(=O)c2cc3ccccc3c(=O)s2)c(-c2cc(C)[nH]n2)c1 [drawing 400] |  |  |  |  |  | > 100 | > 100 | > 100 | > 100 | > 100 |
| NC(=O)c1c(NC(=O)Nc2ccccc2)sc2c1CCCC2 [drawing 401] | 16 | 80 | 34 | 38 | 27 |  |  |  |  |  |
| Cn1c(=O)c2c(nc3n(CCO)c(-c4ccccc4)cn23)n(C)c1=O [drawing 402] | > 100 | > 100 | > 100 | > 100 | > 100 |  |  |  |  |  |
| CC1=NNC(=O)/C1=C\c1cn(-c2ccccc2)nc1-c1ccccc1 [drawing 403] | 20 | 8 | 7 | 12 | 8 |  |  |  |  |  |
| Cc1ccc(F)cc1S(=O)(=O)Nc1cccc(C(=O)OCC(=O)NC2CCCCC2)c1 [drawing 404] | > 100 | 33 | > 100 | > 100 | > 100 |  |  |  |  |  |
| O=C1c2ccccc2C(=O)N1C[C@H](O)Cn1nc(-c2cccs2)c2ccccc2c1=O [drawing 405] | > 100 | > 100 | > 100 | > 100 | > 100 |  |  |  |  |  |
| O=c1c(O)c(-c2ccc(O)c(O)c2)oc2cc(O)cc(O)c12 [drawing 406] | 21 | 36 | 33 | 24 | > 100 |  |  |  |  |  |
| O=C(NCC1CCCCC1)c1cccc(Nc2nccc(Nc3ccc4ncsc4c3)n2)c1 [drawing 407] | > 100 | 33 | > 100 | 87 | > 100 |  |  |  |  |  |
| CC(C)(CO)NC(=O)c1cccc(Nc2nccc(Nc3ccc4ncsc4c3)n2)c1 [drawing 408] | 12 | 17 | 18 | 10 | 16 |  |  |  |  |  |
| Nc1nc(Nc2ccc(C(=O)N3CCCCCC3)cc2)cc(Nc2ccc3ncsc3c2)n1 [drawing 409] | 50 | 25 | > 100 | 14 | > 100 |  |  |  |  |  |
| O=C(NCc1cccs1)c1cccc(Nc2nccc(Nc3ccc4ncsc4c3)n2)c1 [drawing 410] | 9 | 25 | 23 | 11 | 26 |  |  |  |  |  |
| O=C(NCCN1CCOCC1)c1cccc(Nc2nccc(Nc3ccc4ncsc4c3)n2)c1 [drawing 411] | 19 | 18 | > 100 | > 100 | > 100 |  |  |  |  |  |
| Cc1cccc(Nc2nccc(Nc3cccc(C(=O)NCc4ccccc4F)c3)n2)c1 [drawing 412] | 9 | 11 | 16 | 6 | 34 |  |  |  |  |  |
| CN(C)CC(C)(C)CNC(=O)c1cccc(Nc2nccc(Nc3ccc4ncsc4c3)n2)c1 [drawing 413] | 24 | 32 | 76 | 9 | 73 |  |  |  |  |  |
| CN1CCN(C(=O)c2cccc(Nc3nccc(Nc4ccc5ncsc5c4)n3)c2)CC1 [drawing 415] | 11 | 22 | 39 | 14 | 32 |  |  |  |  |  |
| Cc1cccc(Nc2nccc(Nc3cccc(C(=O)NCCCN4CCOCC4)c3)n2)c1 [drawing 416] | 34 | 99 | > 100 | 40 | 76 |  |  |  |  |  |
| Nc1nc(Nc2ccc(C(=O)NCCc3ccncc3)cc2)cc(Nc2ccc3ncsc3c2)n1 [drawing 417] | 22 | 17 | > 100 | > 100 | 33 |  |  |  |  |  |
